Like-named read-outs stand apart in the source and are kept apart here.
Tests used:
[1] = target: CDK1/cyclin B; assay: CDK1/cyclin B kinase assay (histone H1, 15 μM ATP); type: biochemical, starfish (Marthasterias glacialis)
[2] = target: GSK-3α/β; assay: GSK-3α/β kinase assay (GS-1 peptide, 15 μM ATP); type: biochemical, porcine
[3] = target: CDK5/p25 (Homo sapiens, UniProt Q00535); assay: CDK5/p25 kinase assay (histone H1, 15 μM ATP); type: biochemical, mammalian
[4] = target: T1, AhR (Homo sapiens, UniProt P35869); assay: Yeast AhR reporter assay (β-galactosidase); conditions: read-out: EC50 AhR (yeast); Table 4; * = inactive at the indicated highest concentration tested
T1 sequence (P35869 11-848): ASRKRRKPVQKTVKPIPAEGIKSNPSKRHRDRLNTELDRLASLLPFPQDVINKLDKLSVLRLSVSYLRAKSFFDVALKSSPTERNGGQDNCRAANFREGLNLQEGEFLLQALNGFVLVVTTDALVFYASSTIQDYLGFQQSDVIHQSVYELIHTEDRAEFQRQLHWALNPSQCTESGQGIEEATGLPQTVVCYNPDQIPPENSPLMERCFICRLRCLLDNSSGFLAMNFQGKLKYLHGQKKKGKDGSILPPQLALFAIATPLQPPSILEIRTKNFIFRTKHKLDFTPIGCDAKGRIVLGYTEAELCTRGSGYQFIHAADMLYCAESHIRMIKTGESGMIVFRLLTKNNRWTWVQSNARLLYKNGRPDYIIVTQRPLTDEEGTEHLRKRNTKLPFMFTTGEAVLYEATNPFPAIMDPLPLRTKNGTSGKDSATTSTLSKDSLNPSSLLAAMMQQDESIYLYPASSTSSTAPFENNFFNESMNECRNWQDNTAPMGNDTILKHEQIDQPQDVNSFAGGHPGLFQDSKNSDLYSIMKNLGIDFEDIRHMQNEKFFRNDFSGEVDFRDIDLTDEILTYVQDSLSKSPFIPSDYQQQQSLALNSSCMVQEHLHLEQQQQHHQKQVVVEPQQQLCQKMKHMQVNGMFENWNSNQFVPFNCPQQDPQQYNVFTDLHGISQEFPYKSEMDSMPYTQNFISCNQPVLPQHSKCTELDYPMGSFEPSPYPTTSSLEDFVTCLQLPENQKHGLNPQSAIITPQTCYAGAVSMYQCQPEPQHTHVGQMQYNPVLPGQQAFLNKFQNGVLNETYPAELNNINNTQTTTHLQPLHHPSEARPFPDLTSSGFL
T1 sequence (P27540 whole entry partner): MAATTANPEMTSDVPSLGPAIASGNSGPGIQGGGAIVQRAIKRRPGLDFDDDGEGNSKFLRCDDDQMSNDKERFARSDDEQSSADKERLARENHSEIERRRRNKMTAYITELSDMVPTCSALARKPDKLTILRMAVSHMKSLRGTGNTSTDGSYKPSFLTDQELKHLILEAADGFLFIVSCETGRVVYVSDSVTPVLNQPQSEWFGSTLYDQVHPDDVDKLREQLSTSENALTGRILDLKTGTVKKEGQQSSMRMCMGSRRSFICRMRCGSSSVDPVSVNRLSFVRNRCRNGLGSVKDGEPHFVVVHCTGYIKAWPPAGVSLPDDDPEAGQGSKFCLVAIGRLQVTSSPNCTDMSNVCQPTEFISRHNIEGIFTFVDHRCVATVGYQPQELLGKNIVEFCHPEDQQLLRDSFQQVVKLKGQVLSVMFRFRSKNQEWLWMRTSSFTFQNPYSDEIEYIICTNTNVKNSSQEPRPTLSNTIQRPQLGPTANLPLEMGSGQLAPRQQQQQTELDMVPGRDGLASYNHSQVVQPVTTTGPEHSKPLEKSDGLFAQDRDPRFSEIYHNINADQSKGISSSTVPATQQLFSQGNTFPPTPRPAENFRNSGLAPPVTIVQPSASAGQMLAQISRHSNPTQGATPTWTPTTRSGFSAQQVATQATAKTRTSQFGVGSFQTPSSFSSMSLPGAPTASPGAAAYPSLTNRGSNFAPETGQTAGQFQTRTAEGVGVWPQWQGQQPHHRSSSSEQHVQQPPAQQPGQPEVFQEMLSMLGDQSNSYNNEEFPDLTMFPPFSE

[5] = target: T2, AhR (Mus musculus, UniProt P30561); conditions: read-out: EC50 AhR (hepatoma cell line); Table 4; EGFP at 24 hours
T2 sequence (P30561 1-848): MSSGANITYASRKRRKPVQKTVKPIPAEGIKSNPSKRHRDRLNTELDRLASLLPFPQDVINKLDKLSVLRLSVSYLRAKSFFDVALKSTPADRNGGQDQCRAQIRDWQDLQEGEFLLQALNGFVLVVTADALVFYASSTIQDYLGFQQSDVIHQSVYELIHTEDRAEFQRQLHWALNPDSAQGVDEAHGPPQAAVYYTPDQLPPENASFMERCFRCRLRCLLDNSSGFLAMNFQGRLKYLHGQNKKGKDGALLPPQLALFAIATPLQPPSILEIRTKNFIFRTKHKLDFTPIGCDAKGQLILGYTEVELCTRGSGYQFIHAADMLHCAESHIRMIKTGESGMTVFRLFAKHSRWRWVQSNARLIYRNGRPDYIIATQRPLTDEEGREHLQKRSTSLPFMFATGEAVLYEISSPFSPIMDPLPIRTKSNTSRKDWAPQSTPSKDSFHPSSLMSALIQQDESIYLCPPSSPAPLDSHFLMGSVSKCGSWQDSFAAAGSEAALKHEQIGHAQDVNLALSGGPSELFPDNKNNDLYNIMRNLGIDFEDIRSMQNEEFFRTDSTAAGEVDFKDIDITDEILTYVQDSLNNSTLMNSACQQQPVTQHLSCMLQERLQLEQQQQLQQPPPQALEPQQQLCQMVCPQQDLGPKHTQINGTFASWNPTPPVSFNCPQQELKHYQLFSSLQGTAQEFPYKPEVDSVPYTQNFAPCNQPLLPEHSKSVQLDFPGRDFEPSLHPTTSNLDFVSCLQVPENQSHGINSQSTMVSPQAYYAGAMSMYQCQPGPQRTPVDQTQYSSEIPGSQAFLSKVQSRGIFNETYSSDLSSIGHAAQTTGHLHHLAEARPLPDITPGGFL

[6] = target: T1, AhR
[7] = Table 5, read-out: IC50 CDK1/cyclin B
[8] = Table 5, read-out: IC50 GSK-3α/β
[9] = Table 5, read-out: IC50 CDK5/p25
[10] = Table 7, GSK-3, read-out: IC50exp
[11] = Table 4, read-out: IC50 CDK1/cycin B
[12] = Table 1, read-out: IC50 GSK-3 α/β
[13] = Table 1, read-out: IC50 CDK5/p25
[14] = Table 6, read-out: GSK-3 (IC50 μM)
[15] = Table 6, read-out: CDK-5 (IC50 μM)

Chain of CDK5/p25 (Q00535 whole entry, species assumed): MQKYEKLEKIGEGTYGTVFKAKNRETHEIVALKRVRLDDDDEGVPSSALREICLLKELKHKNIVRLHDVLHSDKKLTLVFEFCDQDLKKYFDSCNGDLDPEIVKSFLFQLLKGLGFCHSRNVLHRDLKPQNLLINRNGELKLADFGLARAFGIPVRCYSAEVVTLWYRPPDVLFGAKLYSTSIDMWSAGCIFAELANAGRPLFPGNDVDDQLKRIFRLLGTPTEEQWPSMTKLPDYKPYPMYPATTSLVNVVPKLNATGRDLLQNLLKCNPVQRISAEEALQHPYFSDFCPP
Chain of CDK5/p25 (Q15078 99-307 partner limits assumed, species assumed): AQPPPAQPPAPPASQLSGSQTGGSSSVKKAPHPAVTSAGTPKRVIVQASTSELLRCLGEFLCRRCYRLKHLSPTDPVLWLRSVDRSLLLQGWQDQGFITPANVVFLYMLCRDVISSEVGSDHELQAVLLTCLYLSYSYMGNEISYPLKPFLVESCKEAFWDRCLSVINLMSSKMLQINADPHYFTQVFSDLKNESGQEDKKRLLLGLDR

Structure (SMILES) | IC50 [1, 7] [nM] | IC50 [2, 8] [µM] | IC50 [3, 9] [µM] | IC50 [2, 10] [µM] | EC50 [5] [nM] | IC50 ([2]; Table 4, read-out: IC50 GSK-3) [µM] | other results
C=Cc1ccc2c(c1)NC(=O)C2=C1Nc2ccccc2C1=NOC(C)=O [8i, 6-vinylindirubin-3′-acetoxime] | 1600 | 0.065 | 0.4 |  |  |  | 
CC(=O)ON=C1C(=C2C(=O)Nc3cc(Br)c([N+](=O)[O-])cc32)Nc2ccccc21 [8g, 6-Bromo-5-nitroindirubin-3′-acetoxime] | 11000 | 0.006 | 31 | 0.006 |  |  | 
O=C1Nc2ccccc2/C1=C1/Nc2cc(Br)ccc2C1=O [12a, 6′-Bromoindirubin] | > 100000 | 22 | > 100 | 22 | 1200 | 22 | IC50 ([1]; Table 1, read-out: IC50 CDK1/cyclin B): > 100000 nM; IC50 [1, 11]: > 100000 nM; EC50 [4]: 100 nM; IC50 [2, 12]: 22 µM; IC50 [3, 13]: > 100 µM
Cc1ccc2c(c1)/C(=C1/Nc3ccccc3C1=O)C(=O)N2 [compound 15, 5-methyl-indirubin, reference compound] |  |  |  | 0.062 | 25 | 0.062 | IC50 ([1]; read-out: IC50 CDK1/cycin B): 280 nM; EC50 [6]: 40 nM
C=Cc1ccc2c(c1)NC(=O)/C2=C1\Nc2ccccc2C1=O [5i, 6-Vinylindirubin] | 4200 | 0.24 | 2.4 |  |  |  | 
O=C1Nc2ccc(Br)cc2/C1=C1/Nc2ccccc2C1=O [compound 16, 5-bromo-indirubin, reference compound] |  |  |  | 0.055 | 7 | 0.055 | IC50 [1, 11]: 230 nM; EC50 [6]: 35 nM
Nc1cc2c(cc1Br)NC(=O)/C2=C1\Nc2ccccc2C1=NO [compound 28, 6-Bromo-5-amino-3′-oxime indirubin] |  |  |  |  |  |  | IC50 [2, 14]: 0.056 µM; IC50 [3, 15]: 0.57 µM
O=C1Nc2cc(Cl)ccc2C1=C1Nc2ccccc2C1=NO [7d, 6-Chloroindirubin-3′-oxime] | 650 | 0.02 | 0.1 | 0.02 | 200 | 0.02 | IC50 [1, 11]: 650 nM; EC50 [4]: 4 nM
O=C1Nc2cc(F)ccc2/C1=C1/Nc2ccccc2C1=O [5b, 6-Fluoroindirubin] |  |  | 1 |  |  |  | 
C=Cc1ccc2c(c1)NC(=O)C2=C1Nc2ccccc2C1=NO [7i, 6-Vinylindirubin-3′-oxime] |  | 0.06 | 0.42 |  |  |  | 
O=C1Nc2cc(I)ccc2C1=C1Nc2ccccc2C1=NO [7c, 6-Iodoindirubin-3′-oxime] |  |  | 0.3 |  | 440 |  | EC50 [4]: > 100 nM
CC(=O)ON=C1C(=C2C(=O)Nc3cc(Br)c(C)cc32)Nc2ccccc21 [8f, 6-Bromo-5-methylindirubin-3′-acetoxime] | 31000 | 0.007 | 30 | 0.007 |  |  | 
CN1C(=O)C(=C2Nc3ccccc3C2=O)c2ccc(Br)cc21 [12c, 6-Bromo-1-methylindirubin] | > 100000 | > 100 | > 100 |  | 50 | > 100 | IC50 [1, 11]: > 100000 nM; EC50 [4]: ≥ 100 nM; IC50 [2, 12]: > 100 µM; IC50 [3, 13]: > 100 µM
O=C1Nc2ccc(Br)cc2/C1=C1/Nc2ccc(Br)cc2C1=O [compound 21, 5,5′-dibromo-indirubin, reference compound] |  |  |  | 0.25 | 47 | 0.25 | IC50 [1, 11]: 600000 nM; EC50 [6]: > 200 nM
O=C1Nc2ccc(F)cc2C1=C1Nc2ccccc2C1=O [5-Fluoroindirubin, reference compound] |  |  |  | 0.078 |  |  | 
Nc1cc2c(cc1Br)NC(=O)C2=C1Nc2ccccc2C1=O [compound 27, 6-Bromo-5-aminoindirubin] |  |  |  |  |  |  | IC50 [2, 14]: 0.054 µM; IC50 [3, 15]: 0.6 µM
O=C1Nc2ccc([N+](=O)[O-])cc2C1=C1Nc2ccccc2C1=O [5-Nitroindirubin, reference compound] |  |  |  | 0.042 |  |  | 
Nc1ccc2c(c1)C(=C1Nc3ccccc3C1=O)C(=O)N2 [compound 23, 5-Aminoindirubin] |  |  |  |  |  |  | IC50 [2, 14]: 1.5 µM; IC50 [3]: 2.6 µM
